These are literature values, as cited in patent US4764376A, “Method of inhibiting aromatase” (Eli Lilly and Company, priority 1984, dated 1988).

This series relates to breast cancer. The note with it: known aromatase inhibitors; result in words.

`CCC1(c2ccc(N)cc2)CCC(=O)NC1=O` (centres unmarked) [aminoglutethimide]: the “beneficial effect in treatment of breast cancer” value is “beneficial effect”.
With `C[C@]12C=CC(=O)C=C1CC[C@@H]1[C@@H]2CC[C@]2(C)OC(=O)CC[C@@H]12` [testolactone], the “beneficial effect in treatment of breast cancer” value is given as “beneficial effect”.
